36 compounds from PubChem BioAssay AID1871 (NMMLSC, 2009) can be followed below.

Molecules are shown by their SMILES. The source made the active and inactive calls. The rule behind the calls is not given here.

In the first test the target is Regulator of G-protein signaling 7 (Homo sapiens) (UniProt P49802). Put plainly: potency of compounds altering RGS7-Galphao association – biochemical, multiplexed bead flow cytometry, dose response (AID 1871). To be noted: bead-based flow cytometry, RGS7-Galphao binding.
Sequence of Regulator of G-protein signaling 7 (Homo sapiens) (P49802 whole entry, looked up): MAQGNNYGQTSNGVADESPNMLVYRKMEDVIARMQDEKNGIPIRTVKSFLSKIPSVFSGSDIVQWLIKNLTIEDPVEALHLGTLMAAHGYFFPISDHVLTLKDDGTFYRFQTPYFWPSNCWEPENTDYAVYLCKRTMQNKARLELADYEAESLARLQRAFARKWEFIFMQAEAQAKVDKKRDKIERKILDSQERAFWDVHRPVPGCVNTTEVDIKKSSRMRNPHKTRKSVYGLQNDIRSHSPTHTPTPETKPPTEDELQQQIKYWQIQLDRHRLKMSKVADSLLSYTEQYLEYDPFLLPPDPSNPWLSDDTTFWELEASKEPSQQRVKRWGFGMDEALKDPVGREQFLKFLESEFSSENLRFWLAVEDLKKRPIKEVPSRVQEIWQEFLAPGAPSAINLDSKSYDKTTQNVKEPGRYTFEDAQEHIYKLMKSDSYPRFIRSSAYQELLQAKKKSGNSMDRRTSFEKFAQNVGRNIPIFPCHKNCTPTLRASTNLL
As to `CCOC(=O)/C(C(=O)Nc1ccccc1Cl)=C1/NC(C)(C)Cc2ccccc21`, the EC50 is > 30 µM (inactive).

In the case of `CN(C)[C@@H]1C(=O)C(C(=O)NCN2CCCC2)=C(O)[C@@]2(O)C(=O)C3=C(O)c4c(O)cccc4[C@@](C)(O)C3CC12` (stereo partly drawn), the EC50 was 4.35 µM.

For `CCOC(=O)C1=C(C)NC(C)=C(C(=O)OCCNC(=O)c2cccnc2)C1c1cccc([N+](=O)[O-])c1` (stereo not drawn), the EC50 was > 30 µM (inactive).

On to `O=c1[nH]c(=S)n(Cc2ccco2)c(O)c1C=NCc1cccs1`, for which the EC50 is > 30 µM (inactive).

In the case of `O=C1CCCC2=C1C(c1cccs1)n1ncnc1N2` (stereo not drawn), the EC50 is > 30 µM (inactive).

On to `CCOC(=O)N=Nc1c(O)n(C)c2ccccc12`, for which the EC50 is > 30 µM (inactive).

With `NS(=O)(=O)c1ccc(N/N=C/c2ccc(O)c(O)c2O)c([N+](=O)[O-])c1`, the half-maximal effective concentration (EC50) is 1.95 µM.

As to `COc1ccc(Br)cc1/C=N/Nc1cccc(C(=O)O)c1`, the EC50 was > 30 µM (inactive).

Consider `CC(C)Sc1nc2ccc(N3C(=O)C4CCCCC4C3=O)cc2s1` (stereo not drawn), for which the EC50 was > 30 µM (inactive).

Staying with this test, now noted: bead-based flow cytometry, RGS7-Galphao binding; measured here: Ki for RGS7-Galphao.
`CCNc1ccc2noc3c2c1C(=O)c1ccccc1-3` gave a Ki of 22.2 µM.

`COc1ccc(OC)c(CCNC(=O)Cn2sc3nc(C)cc(C)c3c2=O)c1` came in with an inhibition constant Ki of 3.45 µM.

On to `O=C1CCC(=O)N(O)CCCCCNC(=O)CCC(=O)N(O)CCCCCNC(=O)CCC(=O)N(O)CCCCCN1`, for which the Ki turned out to be 2.01 µM.

Regarding `CC(=O)N(O)CCCCCNC(=O)CCC(=O)N(O)CCCCCNC(=O)CCC(=O)N(O)CCCCCN`, the inhibitory constant (Ki) is 1.05 µM.

`CN1CCN(C2=C(Cl)C(=O)C(c3cnc(N4CCCCC4)s3)=C(Cl)C2=O)CC1` registered an inhibition constant Ki of 0.15 µM.

In the case of `O=c1c2ccccc2sn1-c1ccc(S(=O)(=O)N2CCCC2)cc1`, the inhibition constant Ki was 0.53 µM.

`CCC(=O)NC1=C(Cl)C(=O)C(NC(=O)CC)=C(Cl)C1=O` displayed a Ki of 3.33 µM.

The compound `Nc1c(C(=O)NCC2CCCO2)sc2nc3c(c(-c4ccco4)c12)CC/C3=C\c1ccco1` (stereo not drawn) registered an inhibition constant (Ki) of 3.12 µM.

As for `O=C(O)C[C@@H]1C(=O)O[C@@H]2C(COC(=O)c3cc(O)c(O)c(O)c3)O[C@@H](OC(=O)c3cc(O)c(O)c(O)c3)[C@@H](OC(=O)c3cc(O)c(O)c4c3[C@H]1[C@H](O)C(=O)O4)[C@H]2OC(=O)c1cc(O)c(O)c(O)c1` (stereo partly drawn), the Ki turned out to be 0.51 µM.

Compound `C/C(=N/NC(=O)c1cc(O)c(O)c(O)c1)c1ccc([N+](=O)[O-])cc1` yielded an inhibition constant Ki of 18.1 µM. This Ki lies about 35-fold higher than the previous one.

The compound `CN=c1scc(C)n1/N=C/c1ccc(O)c(O)c1O` showed a Ki of 8.75 µM. This Ki lies about 2.1-fold lower than the previous one.

With `CCCNC(=O)Cn1sc2nc(C)cc(C)c2c1=O`, the Ki came to 4.08 µM.

The compound `CC1(C)OC(=O)C(=Cc2ccc(-c3ccc(S(N)(=O)=O)cc3)o2)C(=O)O1` returned a Ki of 4.87 µM.

With `COc1ccc(C2=CC(=O)C=CC2=O)cc1`, the inhibition constant (Ki) came out at 8.17 µM.

Compound `O=C1C(Cl)=C(N2CCCCC2)C(=O)C(Cl)=C1c1cnc(N2CCCCC2)s1` showed a Ki of 0.71 µM.

Take `CN(C)[C@@H]1C(=O)C(C(=O)NCN2CCCC2)=C(O)[C@@]2(O)C(=O)C3=C(O)c4c(O)cccc4[C@@](C)(O)C3CC12` (stereo partly drawn): the Ki was 3.7 µM.

Take `CCN(CC)S(=O)(=O)c1cccc(C(=O)N/N=C/c2ccc(O)c(O)c2O)c1`: the Ki came out at 3.3 µM. This Ki and that of the compound before are within 1.5-fold of each other.

For the compound `O=C1OCC2OC(O)C(O)C(O)C2OC(=O)c2cc(O)c(O)c(O)c2-c2c(O)c(O)c3oc(=O)c4c(c(O)c(O)c5oc(=O)c2c3c54)-c2c1cc(O)c(O)c2O` (stereo not drawn), the inhibitory constant (Ki) turned out to be 1.75 µM.

`COCCCNC(=O)c1ccc2c3c(onc13)-c1ccccc1C2=O` yielded an inhibition constant (Ki) of 1.48 µM.

`CCOc1ccccc1-c1c2cc(O)c(=O)cc-2oc2cc(O)c(O)cc12` yielded an inhibitory constant (Ki) of 6.17 µM. This Ki lies about 4.2-fold higher than the previous one.

In the case of `CN(C)c1ncc(C2=C(Cl)C(=O)C(N3CCCC3)=C(Cl)C2=O)s1`, the inhibition constant (Ki) was 1.15 µM.

In turn, `O=C(COc1ccccc1C(=O)N/N=C\c1ccc(O)c(O)c1)N/N=C/c1ccc(O)c(O)c1` showed an inhibition constant (Ki) of 1.94 µM.

Take `CCC(=O)NC(c1ccc(C)cc1)c1cc([N+](=O)[O-])c2cccnc2c1O` (stereo not drawn): the Ki stood at 11.4 µM.

`NS(=O)(=O)c1ccc(N/N=C/c2ccc(O)c(O)c2O)c([N+](=O)[O-])c1`: the Ki turned out to be 1.66 µM.

Compound `O=C(Cc1csc(N2CCOCC2)n1)N/N=C/c1ccc(O)c(O)c1O` yielded a Ki of 7.67 µM.

As to `O=C(OCC1O[C@@H](OC(=O)c2cc(O)c(O)c(O)c2)[C@@H](OC(=O)c2cc(O)c(O)c(O)c2)[C@@H](OC(=O)c2cc(O)c(O)c(O)c2)[C@@H]1OC(=O)c1cc(O)c(O)c(O)c1)c1cc(O)c(O)c(O)c1` (stereo partly drawn), the Ki came out at 0.37 µM.

The compound `O=C(O[C@@H]1OC2COC(=O)c3cc(O)c(O)c(O)c3-c3c(cc(O)c(O)c3O)C(=O)O[C@@H]([C@H]1O)[C@@H]2O)c1cc(O)c(O)c(O)c1` gave a Ki of 0.98 µM.

In turn, `O=[N+]([O-])c1ccc(Sc2cccc[n+]2[O-])c2nonc12` displayed a Ki of 4.06 µM.

In turn, `CCN=c1scc(C)n1/N=C/c1ccc(O)c(O)c1O` displayed a Ki of 11.9 µM.
